Results taken from patent US20230136702A1, “Inhibitors of Human Herpesviruses” (The Governors of the University of Alberta, priority 2020, published 2023).
Where a name gives a salt, the structure may show the parent alone. Read-outs that look alike come from different tables or passages of the source.

Key:
[1] = molecular target: T1, HCMV DNA polymerase (UL54) (Human cytomegalovirus, UniProt P08546); assay: HCMV DNA polymerase enzyme inhibition assay (ProFoldin, fluorescence); assay type: biochemical; settings: 37° C., duplicate, max 40 μM
T1 construct: 6His (C); made in house; host or cells: Sf9 insect cells (baculovirus, pFastBac)
T1 sequence (P08546 whole entry): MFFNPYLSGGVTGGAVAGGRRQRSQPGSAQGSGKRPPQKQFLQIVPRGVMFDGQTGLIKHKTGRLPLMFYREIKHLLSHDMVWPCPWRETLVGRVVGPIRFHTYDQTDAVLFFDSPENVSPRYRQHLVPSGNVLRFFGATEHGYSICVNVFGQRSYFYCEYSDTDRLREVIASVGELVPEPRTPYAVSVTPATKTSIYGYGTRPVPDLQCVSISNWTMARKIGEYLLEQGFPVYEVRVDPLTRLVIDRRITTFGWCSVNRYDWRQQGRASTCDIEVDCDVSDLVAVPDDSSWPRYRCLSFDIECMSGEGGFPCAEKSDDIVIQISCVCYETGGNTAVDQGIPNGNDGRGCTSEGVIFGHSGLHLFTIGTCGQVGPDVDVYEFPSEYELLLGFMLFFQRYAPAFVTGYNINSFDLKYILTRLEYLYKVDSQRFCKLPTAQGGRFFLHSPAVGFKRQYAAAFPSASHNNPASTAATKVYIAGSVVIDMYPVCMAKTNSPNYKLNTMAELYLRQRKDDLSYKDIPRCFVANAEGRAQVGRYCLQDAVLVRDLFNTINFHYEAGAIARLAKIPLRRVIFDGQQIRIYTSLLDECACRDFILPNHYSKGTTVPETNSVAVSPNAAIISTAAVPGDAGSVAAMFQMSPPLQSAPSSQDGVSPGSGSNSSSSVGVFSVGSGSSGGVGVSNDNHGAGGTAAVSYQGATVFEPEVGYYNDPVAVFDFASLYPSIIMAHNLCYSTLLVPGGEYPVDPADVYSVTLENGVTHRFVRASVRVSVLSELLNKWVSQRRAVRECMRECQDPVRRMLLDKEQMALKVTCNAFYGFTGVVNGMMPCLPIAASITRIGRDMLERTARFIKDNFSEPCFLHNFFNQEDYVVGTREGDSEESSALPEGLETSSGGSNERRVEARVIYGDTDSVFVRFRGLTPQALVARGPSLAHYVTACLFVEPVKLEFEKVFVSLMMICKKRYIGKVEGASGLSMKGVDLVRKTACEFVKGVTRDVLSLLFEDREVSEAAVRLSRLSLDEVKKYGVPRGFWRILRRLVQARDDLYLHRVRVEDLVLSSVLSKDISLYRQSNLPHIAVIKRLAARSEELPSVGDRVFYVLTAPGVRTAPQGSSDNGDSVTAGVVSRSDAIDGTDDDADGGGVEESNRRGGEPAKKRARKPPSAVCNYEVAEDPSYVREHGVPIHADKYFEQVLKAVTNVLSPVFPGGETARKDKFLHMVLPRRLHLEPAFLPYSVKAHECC

[2] = Cytotoxicity in MRC5 cells without virus infection (CCK8); assay type: cell-based; settings: human
[3] = test system: HCMV US3-6-EGFP-HCMV-AD169 strain; assay: In vitro inhibitory (antiviral) activity against HCMV, GFP reporter in MRC5 cells; assay type: cell-based, Human cytomegalovirus (HCMV); settings: Human betaherpesvirus 5, AD169, MRC5, 96 h, read-out: HCMV Antiviral EC50 range
Summary of the method: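 MRC5 cells were infected with GFP-reporter virus (MOI=0.1) alongside compounds (8 points, 3-fold dilutions, duplicate; top 40 μM test compounds, 100 μM ganciclovir; 0.5% DMSO final) for 4 days at 37 °C. GFP fluorescence inhibition, normalized to virus and cell controls, gave EC50; viability gave CC50.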

hERG potassium channel = molecular target: T2, hERG potassium channel (Homo sapiens, UniProt Q12809); assay: Inhibition of hERG potassium channel, automated patch clamp (SyncroPatch 384PE) in CHO cells; assay type: cell-based
T2 construct: host or cells: CHO cells stably expressing hERG
T2 sequence (Q12809 whole entry): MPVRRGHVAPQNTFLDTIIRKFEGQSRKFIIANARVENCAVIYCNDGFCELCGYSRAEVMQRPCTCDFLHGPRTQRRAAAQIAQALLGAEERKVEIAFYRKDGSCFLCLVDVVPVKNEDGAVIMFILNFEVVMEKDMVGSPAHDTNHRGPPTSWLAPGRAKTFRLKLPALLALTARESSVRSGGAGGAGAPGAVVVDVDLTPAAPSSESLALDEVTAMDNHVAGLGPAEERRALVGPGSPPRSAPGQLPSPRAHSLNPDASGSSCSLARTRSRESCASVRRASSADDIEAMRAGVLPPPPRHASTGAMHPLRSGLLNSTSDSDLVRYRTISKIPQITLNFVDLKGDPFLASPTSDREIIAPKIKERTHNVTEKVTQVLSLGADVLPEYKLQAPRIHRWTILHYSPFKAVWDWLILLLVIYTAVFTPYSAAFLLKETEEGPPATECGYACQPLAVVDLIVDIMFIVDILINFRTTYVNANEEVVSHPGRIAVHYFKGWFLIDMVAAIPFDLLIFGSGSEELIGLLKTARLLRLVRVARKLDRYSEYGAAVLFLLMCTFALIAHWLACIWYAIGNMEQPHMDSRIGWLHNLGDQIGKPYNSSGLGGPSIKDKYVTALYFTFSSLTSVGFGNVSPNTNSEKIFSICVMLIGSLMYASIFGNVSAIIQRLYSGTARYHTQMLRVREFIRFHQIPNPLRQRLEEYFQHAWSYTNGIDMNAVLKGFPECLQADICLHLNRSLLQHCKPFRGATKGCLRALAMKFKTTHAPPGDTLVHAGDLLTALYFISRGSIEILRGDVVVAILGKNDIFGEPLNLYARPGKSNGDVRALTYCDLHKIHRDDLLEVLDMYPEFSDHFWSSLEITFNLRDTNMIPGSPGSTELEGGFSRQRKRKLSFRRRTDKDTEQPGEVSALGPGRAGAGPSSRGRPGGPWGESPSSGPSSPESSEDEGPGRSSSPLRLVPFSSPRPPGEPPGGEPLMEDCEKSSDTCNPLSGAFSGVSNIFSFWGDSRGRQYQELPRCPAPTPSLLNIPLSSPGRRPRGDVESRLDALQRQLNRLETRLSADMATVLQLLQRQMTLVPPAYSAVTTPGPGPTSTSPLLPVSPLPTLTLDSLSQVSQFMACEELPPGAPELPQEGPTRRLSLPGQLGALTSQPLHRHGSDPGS

[4] = CHO cells stably expressing hERG, room temperature, 0.494-40.00 μM, read-out: CHO-hERG Activity Range

CC(C)[C@H](N)C(=O)NCCN1CCN(c2cnc3c(cc(C(=O)NCc4ccc(Cl)cc4)c(=O)n3CC(=O)N3CC(C)(F)C3)n2)C1=O [Compound 37, N-[(4-chlorophenyl)methyl]-5-[2-(3-fluoro-3-methylazetidin-1-yl)-2-oxoethyl]-6-oxo-2-{2-oxo-3-[2-(L-valylamino)ethyl]imidazolidin-1-yl}-5,6-dihydropyrido[2,3-b]pyrazine-7-carboxamide-hydrochloride salt]
IC50 [1]: > 1 µM
CC50 at 4 days ([2]; MRC5 cells, 4 days, CCK8, highest concentration 40 μM, read-out: MCR5 CC50): > 40 µM
EC50 [3]: < 1 µM
IC50 (hERG potassium channel; [4]): > 10 µM

CC1(F)CN(C(=O)Cn2c(=O)c(C(=O)NCc3ccc(Cl)cc3)cc3nc(N4CCN(CC(N)=O)C4=O)cnc32)C1 [Compound 40, 2-[3-(2-amino-2-oxoethyl)-2-oxoimidazolidin-1-yl]-N-[(4-chlorophenyl)methyl]-5-[2-(3-fluoro-3-methylazetidin-1-yl)-2-oxoethyl]-6-oxo-5,6-dihydropyrido[2,3-b]pyrazine-7-carboxamide]
IC50 [1]: < 1 µM
CC50 at 4 days [2]: > 40 µM
EC50 [3]: > 1 µM
IC50 (hERG potassium channel; [4]): > 10 µM

CC1(F)CN(C(=O)Cn2c(=O)c(C(=O)NCc3ccc(Cl)cc3)cc3nc(N4CC(=O)NC4=O)cnc32)C1 [Compound 41, N-[(4-chlorophenyl)methyl]-2-(2,4-dioxoimidazolidin-1-yl)-5-[2-(3-fluoro-3-methylazetidin-1-yl)-2-oxoethyl]-6-oxo-5,6-dihydropyrido[2,3-b]pyrazine-7-carboxamide]
IC50 [1]: < 1 µM
CC50 at 4 days [2]: 23 µM
EC50 [3]: > 1 µM
IC50 (hERG potassium channel; [4]): > 10 µM

CN(C)CCN1CCN(c2cnc3c(cc(C(=O)NCc4ccc(Cl)cc4)c(=O)n3CC(=O)N3CC(C)(F)C3)n2)C1=O [Compound 42, N-[(4-chlorophenyl)methyl]-2-{3-[2-(dimethylamino)ethyl]-2-oxoimidazolidin-1-yl}-5-[2-(3-fluoro-3-methylazetidin-1-yl)-2-oxoethyl]-6-oxo-5,6-dihydropyrido[2,3-b]pyrazine-7-carboxamide]
IC50 [1]: > 1 µM
CC50 at 4 days [2]: > 40 µM
EC50 [3]: < 1 µM
IC50 (hERG potassium channel; [4]): > 10 µM

CC1(C)CN(C(=O)Cn2c(=O)c(C(=O)NCc3ccc(Cl)cc3)cc3nc(N4CCN(C(C)(C)C(=O)O)C4=O)cnc32)C1 [Compound 43, 2-[3-(7-{[(4-chlorophenyl)methyl]carbamoyl}-5-[2-(3,3-dimethylazetidin-1-yl)-2-oxoethyl]-6-oxo-5,6-dihydropyrido[2,3-b]pyrazin-2-yl)-2-oxoimidazolidin-1-yl]-2-methylpropanoic acid]
IC50 [1]: < 1 µM
CC50 at 4 days [2]: > 40 µM
EC50 [3]: < 1 µM
IC50 (hERG potassium channel; [4]): > 10 µM

CC(C)(C(=O)O)N1CCN(c2cnc3c(cc(C(=O)NCc4ccc(Cl)cc4)c(=O)n3CC(=O)N3CC4(CC4)C3)n2)C1=O [Compound 44, 2-[3-(5-[2-(5-azaspiro[2.3]hexan-5-yl)-2-oxoethyl]-7-{[(4-chlorophenyl)methyl]carbamoyl}-6-oxo-5,6-dihydropyrido[2,3-b]pyrazin-2-yl)-2-oxoimidazolidin-1-yl]-2-methylpropanoic acid]
IC50 [1]: < 1 µM
CC50 at 4 days [2]: > 40 µM
EC50 [3]: < 1 µM
IC50 (hERG potassium channel): > 10 µM

CC1(C)CN(C(=O)Cn2c(=O)c(C(=O)NCc3ccc(Cl)cc3)cc3cc(N4CCN(C(C)(C)C(=O)O)C4=O)cnc32)C1 [Compound 45, 2-(3-(6-{[(4-chlorophenyl)methyl]carbamoyl}-8-(2-(3,3-dimethylazetidin-1-yl)-2-oxoethyl)-7-oxo-7,8-dihydro-1,8-naphthyridin-3-yl)-2-oxoimidazolidin-1-yl)-2-methylpropanoic acid]
IC50 [1]: < 1 µM
CC50 at 4 days [2]: > 40 µM
EC50 [3]: < 1 µM
IC50 (hERG potassium channel; [4]): > 10 µM

CC(C(=O)O)N1CCN(c2cnc3c(cc(C(=O)NCc4ccc(Cl)cc4)c(=O)n3CC(=O)N3CC(C)(C)C3)n2)C1=O (centres unmarked) [Compound 46, 2-[3-(7-{[(4-chlorophenyl)methyl]carbamoyl}-5-[2-(3,3-dimethylazetidin-1-yl)-2-oxoethyl]-6-oxo-5,6-dihydropyrido[2,3-b]pyrazin-2-yl)-2-oxoimidazolidin-1-yl]propanoic acid]
IC50 [1]: < 1 µM
CC50 at 4 days [2]: > 40 µM
EC50 [3]: < 1 µM
IC50 (hERG potassium channel; [4]): > 10 µM
